Values joined by “and” are separate entries in the source; they are usually repeats but may differ in a detail not shown here. Equal values may be shown once. Where a name gives a salt, the structure may show the parent alone. Read-outs that look alike come from different tables or passages of the source.

A short description of data set [1]: Excitation and emission spectra of substrates and hydrolysis products (Table 1). The data set is classed as physicochemical.
Data set [2] deals with Leucine aminopeptidase. The experiment in a line: Enzymatic hydrolysis of substrate by leucine aminopeptidase, Michaelis kinetics. The data set is classed as biochemical. How it is done:
As a result of the possible presence in the substrate Leu ATC (compound 13) of a trace of ATC, i.e. 7-amino-4-(2',5',8'-trioxanonyl)-coumarin, which is the hydrolysis product, use was made of a kinetic method for determining the enzymatic activity of leucine aminopeptidase, i.e. the signal is constituted by the fluorescence intensity difference at 2 minutes and 12 minutes. In this way it is possible to eliminate the interference of the ATC present prior to hydrolysis.
The initial speed of the reaction was studied for a concentration of the substrate constituted by compound 13 (Leu-ATC) between 2×10^-5 mole/l and […] using the following reagents:
Crystalline Leu-ATC hydrochloride of example 13: aqueous solutions 4×10^-5 to 4×10^-3 mole/l,
Leucine aminopeptidase (Sigma, ref N5006): aqueous solution at 7.53 μg/ml in 0.2M Tris buffer, pH7.8,
Tris buffer: solution A: 0.2M Tris, i.e. 24.23 g/l, solution B: 0.1M HCl.
This buffer is prepared by mixing 25 ml of solution A and 33.7 ml of solution B and by topping up to 100 ml with water. The pH must be 7.8.
1.17N perchloric acid solution (1/10 dilution of the pure acid).
For this determination, preparation firstly takes place in tubes of the following range of substrate concentrations (compound 13, Leu-ATC): 0-2-4-10-20-50-100-200×10^-5 M (final concentration).
To each tube is added a concentration of 1.51 μg/ml of Leucine aminopeptidase, everything being dissolved in the Tris buffer at pH 7.8, preheated to 37° C., whilst the tubes are in a water bath thermostatically controlled to 37° C. After 2 min, 250 μl are removed from each tube and poured into tubes containing 250 μl of perchloric solution and 750 μl of water. The same operation is repeated after 6 min. All the tubes are diluted to 1/1000. The intensity of the fluorescence IF is measured at 370/480 nm. The difference of the intensities at 6 and 2 min: […] constitutes the signal.
The corresponding ATC concentration is calculated relative to a calibration range between 10^-9 and 10^-8 M. The results are given in the following table 2:
The speed constant kcat is calculated by the ratio Vm/Ez, in which Vm is the maximum speed in μmole/s/mg/Ez and Ez is the enzyme quantity in 1 mg, expressed in μmole. The molar mass of Leucine aminopeptidase is 300000.
This curve has a hyperbolic behaviour characteristic of a Michaelis kinetics. The experimental points were adjusted to the corresponding equation by non-linear regression (Graphpad software) and made it possible to determine the affinity constant Km, the maximum speed Vm and the speed constant kcat (ratio of the maximum speed to the enzyme concentration).

The test system of data set [3] is Leucine aminopeptidase. The experiment in a line: Determination of leucine aminopeptidase, analytical characteristics of the reaction. The data set is classed as biochemical. How it is done:
The reaction conditions were determined following the preceding stage. The Leu-ATC substrate concentration was chosen to give a maximum speed (1 mM). The reaction time was made 12 minutes by measuring the difference of the fluorescence intensities at 12 and 2 minutes. In order to evaluate the quantification limit, measure the repeatability and test the linearity, […] were prepared containing concentrations of 0-0.05-0.10-0.25-0.50-1 μg/ml using the same reagents as previously and giving the following range:
In order to carry out the evaluation, a series of tubes was prepared containing 750 μl of water+250 μl of 1.17N perchloric solution and at time 2 min, transfer thereto took place of 250 μl of each sample of the enzyme range. The same took place at time 12 min. This was followed by the dilution of all the tubes to 1/200 in water and the reading of the fluorescence (370/480 nm) with a gain of 2 on the Perkin Elmer LS3B fluorimeter.
The results obtained are given in FIG. 25, with which is the mean calibration curve illustrating the variation of the fluorescence intensity as a function of the enzyme concentration (μg/ml). This calibration curve was determined by linear regression. The mean standard deviation is 153±7.36 for the gradient and -3.10±1.16 for the intercept.
The quantification limit, calculated by the ratio […], is 0.02 μg/ml.
The repeatability, evaluated by the variation coefficient, is 17% at 0.05 μg/ml, 8% at 0.25 μg/ml and 4% at 1 μg/ml.

Data set [4] is described as follows: Excitation and emission spectra of ATC derivatives (Table 4). The data set is classed as physicochemical. Particulars: 10^-7 M; Z-Arg-ATC in 50 mM Tris pH 8, 10 mM CaCl2. The procedure:
The excitation and emission spectra of ATC and Z-Arg-ATC were plotted on the basis of 10^-7 M solutions in the 50 mM Tris buffer at pH 8 containing 10 mM of CaCl2. The maxima obtained are indicated in table 4 with the corresponding maxima of Leu-ATC.

The subject of data set [5] is Leucine aminopeptidase. The following applies: known substrates, for comparison; medium with organic solvent; cited from earlier work.
Data set [6] has as its system Leucine aminopeptidase. The following applies: comparison substrate Leu-AMC; cited from earlier work.
A short description of data set [7]: Solubility in water and in water-ethanol mixtures. The following applies: water; read-out: Solubility in water. The data set is classed as physicochemical.
The nature of data set [8]: Ratio of fluorescence intensities of hydrolysis product and substrate. It counts as physicochemical. Particulars: equimolar concentration, at the measurement wavelength.
Substrate in data set [9]: COCCOCCOCc1cc(=O)oc2cc(NC(=O)[C@H](CCCNC(=N)N)NC(=O)OCc3ccccc3)ccc12
The experiment in a line: Hydrolysis of substrate by trypsin, Michaelis kinetics. Particulars: other: Tris buffer pH 8.0 + CaCl2 10 mM, ambient temperature. The data set is classed as biochemical, pig. How it is done: Crystalline Z-Arg-ATC hydrochloride (Seratec): 10^-3 M solution in Tris buffer, pH 8.0+CACl2, 10 mM.
Pig pancreas trypsin (SIGMA T0134): 10^-3 M solution in Tris buffer, pH 8.0+CACl2, 10 mM.
Tris buffer: solution A: 0.2M Tris, i.e. 24.23 g/l+CaCl2, 40 mM, i.e. 5.88 g/l; solution B: 0.1M HCl.
This buffer is prepared by mixing 250 ml of solution A with 268 ml of solution B and by topping up to 1 liter with water.
Acetate buffer: solution A: 0.02M acetic acid; solution B: 0.02M sodium acetate.
This buffer is prepared by mixing volume by volume solutions A and B to obtain a buffer at pH 4.75.
Aqueous 1.17N perchloric acid solution (1/10 dilution of pure acid).
The following substrate concentration range was prepared in tubes: 0-0.2-0.5-1-2-5-10×10^-4 M (final concentration).
To each tube was added a concentration of 6.67 μg/ml of trypsin, everything being dissolved in the Tris buffer pH 8.0+CaCl2, 10 mM and at ambient temperature. The enzyme is added at time 0. After 2 minutes, 250 μl are removed from each tube and poured into tubes containing 250 μl of 1.17N perchloric acid and 500 μl of water. The tubes are centrifuged and then the solution is diluted to 1/250 in the acetate buffer. The same operation is repeated at 17 min. The fluorescence intensity is measured at 380/490nm. The difference of the intensities at 17 and 2 min constitutes the signal.
The corresponding ATC concentration is calculated compared with a calibration range from 5×10^-9 to 2×10^-7 M.
This was followed by the determination of Km, Vm, kcat and the ratio kcat/Km. The results obtained are given in table 6, which also gives for comparison purposes the values obtained with Z-L-Arg-AMC and Bz DL Arg-AMC and Bz -L-Arg-AMC.

Where [10] appears, read: Tris buffer pH 7.8, 37° C., no organic solvent.
[11] abbreviates: words, vs Leu AMC and Leu-βnaphthylamide.
The mark [12] stands for this setting: fluorescence intensity vs enzyme concentration (μg/ml), linear regression.

One may read the Km as the substrate concentration at which the rate is half of its maximum. By kcat is commonly meant the number of substrate molecules converted per active site and unit of time at saturation. As to `COCCOCCOCc1cc(=O)oc2cc(NC(=O)[C@@H](N)CC(C)C)ccc12` [Compound 13, L-leucine-4-(2',5',8'-trioxanonyl)-7-coumarinylamide hydrochloride], the “Maximum excitation wavelength, substrate” value in data set [1] (10^-7 M in Tris buffer, pH 7.8) came to 330 nm. Moreover, the “Maximum fluorescence wavelength, substrate” value in data set [1] (10^-7 M in Tris buffer, pH 7.8) worked out at 405 nm. Besides, in data set [1] (words), the “Stokes displacement compared with AMC and AMCS derivatives” value is recorded as “greater”. The “ATC concentration in hydrolysis solution” value in data set [2] (Leu-ATC 2×10^-5 M) was 1.7 µM/min; in [2] (Leu-ATC 4×10^-5 M), 3.6 µM/min; in [2] (Leu-ATC 10×10^-5 M) it was 6.6 µM/min; in data set [2] (Leu-ATC 20×10^-5 M) it was 12.0 µM/min; in [2] (Leu-ATC 50×10^-5 M) it was 14.1 µM/min; in [2] (Leu-ATC 100×10^-5 M), 14.7 µM/min. Moreover, the “ATC concentration in hydrolysis solution” value in data set [2] (Leu-ATC 200×10^-5 M) was determined as 15.0 µM/min. Besides, the “ATC concentration in working solution” value is reported as 1.38 nM in data set [2] (Leu-ATC 2×10^-5 M); 2.88 nM in [2] (Leu-ATC 4×10^-5 M); 5.25 nM in data set [2] (Leu-ATC 10×10^-5 M); 9.63 nM in data set [2] (Leu-ATC 20×10^-5 M); 11.25 nM in data set [2] (Leu-ATC 50×10^-5 M); 11.75 nM in data set [2] (Leu-ATC 100×10^-5 M). The “ATC concentration in working solution” value in data set [2] (Leu-ATC 200×10^-5 M) is listed as 12.0 nM. The “IF(6)-IF(2)” value in data set [2] (Leu-ATC 2×10^-5 M) is recorded as 5.5; in data set [2] (Leu-ATC 4×10^-5 M), 11.5; in [2] (Leu-ATC 10×10^-5 M), 21; in data set [2] (Leu-ATC 20×10^-5 M), 38.5; in data set [2] (Leu-ATC 50×10^-5 M), 45; in data set [2] (Leu-ATC 100×10^-5 M), 47. In addition, in data set [2] (Leu-ATC 200×10^-5 M), the “IF(6)-IF(2)” value stood at 48. Also, in [2] (setting [10]), the Km was 110 µM. The molecule also returned a Vm in data set [2] (setting [10]) of 10.3 μmole/mg Ez/min. The kcat in data set [2] (ratio Vm/Ez, pH 7.8, 37° C.) is 51.5 s⁻¹. The “affinity for Leucine aminopeptidase compared with the other substrates” value in data set [2] (setting [11]) was “better than that of the two other substrates”. The “maximum speed compared with the other substrates” value in data set [2] (setting [11]) is “higher”. Further, the “repeatability (variation coefficient)” value in [3] (at 0.05 μg/ml enzyme) is 17%; in [3] (at 0.25 μg/ml enzyme), 8%; in data set [3] (at 1 μg/ml enzyme), 4%. Moreover, in data set [3] (setting [12]), the “gradient of calibration curve” value was 153±7.36. In addition, in data set [3] (setting [12]), the “intercept of calibration curve” value was -3.10±1.16. For the same molecule, in data set [3] (leucine aminopeptidase, ratio 3 b/a, substrate 1 mM, 12 min), the quantification limit came out at 0.02 µg/mL. Also, the “excitation maximum, substrate” value in [4] was 330 nm. In data set [4], the “fluorescence maximum, substrate” value is 405 nm.

For the molecule `Cc1cc(=O)oc2cc(NC(=O)[C@@H](N)CC(C)C)ccc12` [Leu AMC], in data set [1] (10^-7 M in Tris buffer, pH 7.8), the “Maximum excitation wavelength, substrate” value was determined as 327 nm and the “Maximum fluorescence wavelength, substrate” value is on record as 390 nm. In [5], the Km was 160 µM and the Vm was 4.0 μmole/mg Ez/min. Moreover, the detection limit in [6] was 0.03 µg/mL.

As a reminder, the solubility is the dissolved amount per volume that the medium holds. As to `COCCOCCOCc1cc(=O)oc2cc(N)ccc12` [Compound 4, 7-amino-4-(2',5',8'-trioxanonyl)coumarin], the solubility in data set [7] was 400 µg/mL and 1330 µM. Besides, in [1] (10^-7 M in Tris buffer, pH 7.8), the “Maximum excitation wavelength, hydrolysis product” value came to 350 nm and the “Maximum fluorescence wavelength, hydrolysis product” value came out at 465 nm. The “ratio of the fluorescence intensities of the hydrolysis product and the substrate” value in data set [8] is listed as “approximately 400”.

With `Nc1ccc2c(CS(=O)(=O)O)cc(=O)oc2c1` [AMCS, 7-amino-4-coumarinyl-methane sulphonic acid, reference compound], the “ratio of the fluorescence intensities of the hydrolysis product and the substrate” value in data set [8] is recorded as approximately 250.

B1: Pig pancreas trypsin (Sus scrofa) (protein)
chain: IVGGYTCAANSIPYQVSLNSGSHFCGGSLINSQWVVSAAHCYKSRIQVRLGEHNIDVLEGNEQFINAAKIITHPNFNGNTLDNDIMLIKLSSPATLNSRVATVSLPRSCAAAGTECLISGWGNTKSSGSSYPSLLQCLKAPVLSDSSCKSSYPGQITGNMICVGFLEGGKDSCQGDSGGPVVCNGQLQGIVSWGYGCAQKNKPGVYTKVCNYVNWIQQTIAAN
By Vmax is commonly meant the rate approached at saturating substrate. Usually kcat/Km stands for the second-order rate constant that governs catalysis at low substrate concentration. In the case of B1, in data set [9], the Km amounted to 195 µM, the Vmax came out at 3.16 µM/min and the kcat/Km was determined as 975 M⁻¹ s⁻¹.

Source of the values: US5342970A, “Hydrosoluble coumarin derivatives, their preparation and their use as an enzyme substrate or for the preparation of such substrates” (priority 1991, dated 1994).
